Columns and labels:
Assay in all cases: HDAC catalytic activity, fluorogenic substrate
Type in all cases: biochemical
Conditions in all cases: 10-dose, 3-fold serial dilution starting at 100 μM, duplicates
HDAC3 = HDAC3 (Homo sapiens, UniProt O15379)
Procedure: (§1) The compound (racemate) was resuspended in 100 mM DMSO and tested in a 10-dose IC50 with 3-fold serial dilution starting at 100 μM against HDACs 1-9, and 11. As reference compounds, Trichostatin A (TSA) and TMP269 were tested in a 10-dose IC50 with 3-fold serial dilution starting at 10 μM or 1 μM.
(§2) 10 μM Fluorogenic peptide from p53 residues 379-382 (RHKK(Ac)AMC) was used for the substrate for HDAC 1, 2, 3, and 6, 50 μM Fluorogenic HDAC Class2a Substrate (Trifluoroacetyl Lysine) was used for the substrate for HDAC 4, 5, 7, 9, and 11, 100 μM Fluorogenic peptide from p53 residues 379-382 (RHK(Ac)K(Ac)AMC) was used for the substrate for HDAC8.
(§3) IC50 values were calculated using the GraphPad Prism 4 program based on a sigmoidal dose-response equation and the blank (DMSO) value concentration was entered as 1.00E-12 M for curve fitting.

HDAC7 = molecular target: T1, HDAC7 (Homo sapiens, UniProt Q8WUI4)
T1 sequence (Q8WUI4 1-952): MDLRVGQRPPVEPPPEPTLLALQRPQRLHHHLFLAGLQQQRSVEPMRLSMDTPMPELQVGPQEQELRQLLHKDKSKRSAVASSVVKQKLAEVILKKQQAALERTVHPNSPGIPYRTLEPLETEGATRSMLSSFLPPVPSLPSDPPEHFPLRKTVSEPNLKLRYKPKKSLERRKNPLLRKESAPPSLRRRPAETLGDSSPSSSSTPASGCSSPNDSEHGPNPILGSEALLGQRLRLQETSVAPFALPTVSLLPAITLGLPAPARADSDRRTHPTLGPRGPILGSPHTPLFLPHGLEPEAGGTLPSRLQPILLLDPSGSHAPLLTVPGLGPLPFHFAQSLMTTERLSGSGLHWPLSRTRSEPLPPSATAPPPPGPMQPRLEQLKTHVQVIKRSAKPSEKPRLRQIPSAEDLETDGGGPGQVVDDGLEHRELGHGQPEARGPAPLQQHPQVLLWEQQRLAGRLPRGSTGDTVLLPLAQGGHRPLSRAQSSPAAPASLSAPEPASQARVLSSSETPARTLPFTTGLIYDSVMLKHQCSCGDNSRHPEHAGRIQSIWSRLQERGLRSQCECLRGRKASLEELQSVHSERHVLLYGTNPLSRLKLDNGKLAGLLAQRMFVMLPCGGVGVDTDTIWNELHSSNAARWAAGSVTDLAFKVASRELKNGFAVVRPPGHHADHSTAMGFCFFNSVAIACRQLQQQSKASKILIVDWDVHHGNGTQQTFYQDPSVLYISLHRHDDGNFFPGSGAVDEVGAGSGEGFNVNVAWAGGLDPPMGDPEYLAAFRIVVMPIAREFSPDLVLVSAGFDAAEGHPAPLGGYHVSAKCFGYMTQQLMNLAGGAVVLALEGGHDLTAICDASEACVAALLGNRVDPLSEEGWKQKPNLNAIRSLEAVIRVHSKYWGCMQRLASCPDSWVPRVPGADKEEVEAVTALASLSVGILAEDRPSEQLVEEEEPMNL
Procedure: as §1, §2, §3

HDAC4 = HDAC4 (Homo sapiens, UniProt P56524)
Procedure: as §1, §2, §3

HDAC8 = molecular target: T2, HDAC8 (Homo sapiens, UniProt Q9BY41)
T2 sequence (Q9BY41 1-377): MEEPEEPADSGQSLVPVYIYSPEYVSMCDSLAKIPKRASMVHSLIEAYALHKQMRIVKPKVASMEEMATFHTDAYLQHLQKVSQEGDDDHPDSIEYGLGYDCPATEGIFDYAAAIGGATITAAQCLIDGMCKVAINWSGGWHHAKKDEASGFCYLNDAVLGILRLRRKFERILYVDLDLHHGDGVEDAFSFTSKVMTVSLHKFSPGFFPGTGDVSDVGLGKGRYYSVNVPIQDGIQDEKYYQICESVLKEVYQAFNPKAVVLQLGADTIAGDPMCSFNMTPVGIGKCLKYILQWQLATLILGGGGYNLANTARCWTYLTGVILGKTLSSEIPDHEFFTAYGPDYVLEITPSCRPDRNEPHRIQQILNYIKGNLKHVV
Procedure: as §1, §2, §3

HDAC2 = HDAC2 (Homo sapiens, UniProt Q92769)
Procedure: as §1, §2, §3

HDAC11 = molecular target: T3, HDAC11 (Homo sapiens, UniProt Q96DB2)
T3 sequence (Q96DB2 1-347): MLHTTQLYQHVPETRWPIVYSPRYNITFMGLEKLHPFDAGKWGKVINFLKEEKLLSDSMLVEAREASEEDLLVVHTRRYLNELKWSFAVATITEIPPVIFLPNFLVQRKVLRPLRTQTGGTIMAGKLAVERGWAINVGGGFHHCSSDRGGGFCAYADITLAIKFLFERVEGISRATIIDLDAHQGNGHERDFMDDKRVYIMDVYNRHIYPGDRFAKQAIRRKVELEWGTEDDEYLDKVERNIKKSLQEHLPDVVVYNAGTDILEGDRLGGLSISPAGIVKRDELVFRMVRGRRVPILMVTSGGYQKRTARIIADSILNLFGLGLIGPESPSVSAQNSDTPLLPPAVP
Procedure: as §1, §2, §3

HDAC1 = HDAC1 (Homo sapiens, UniProt Q13547)
Procedure: as §1, §2, §3

Chain of HDAC3 (O15379 whole entry): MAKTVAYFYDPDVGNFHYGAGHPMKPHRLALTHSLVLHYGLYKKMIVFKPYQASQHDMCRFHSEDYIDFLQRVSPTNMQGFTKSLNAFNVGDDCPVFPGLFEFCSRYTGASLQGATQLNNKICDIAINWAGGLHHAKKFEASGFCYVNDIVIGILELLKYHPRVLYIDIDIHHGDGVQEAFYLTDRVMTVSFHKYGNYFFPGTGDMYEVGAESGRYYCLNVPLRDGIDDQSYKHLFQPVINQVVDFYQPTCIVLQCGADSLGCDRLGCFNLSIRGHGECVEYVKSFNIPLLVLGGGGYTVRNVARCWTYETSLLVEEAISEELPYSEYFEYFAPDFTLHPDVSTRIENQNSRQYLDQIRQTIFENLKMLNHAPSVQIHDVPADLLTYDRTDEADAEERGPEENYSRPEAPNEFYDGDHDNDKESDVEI
Chain of HDAC3 (Q9Y618 395-489 partner limits assumed): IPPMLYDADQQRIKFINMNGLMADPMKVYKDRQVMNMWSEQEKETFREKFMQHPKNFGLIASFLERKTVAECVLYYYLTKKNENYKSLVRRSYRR
Chain of HDAC4 (P56524 whole entry, species assumed): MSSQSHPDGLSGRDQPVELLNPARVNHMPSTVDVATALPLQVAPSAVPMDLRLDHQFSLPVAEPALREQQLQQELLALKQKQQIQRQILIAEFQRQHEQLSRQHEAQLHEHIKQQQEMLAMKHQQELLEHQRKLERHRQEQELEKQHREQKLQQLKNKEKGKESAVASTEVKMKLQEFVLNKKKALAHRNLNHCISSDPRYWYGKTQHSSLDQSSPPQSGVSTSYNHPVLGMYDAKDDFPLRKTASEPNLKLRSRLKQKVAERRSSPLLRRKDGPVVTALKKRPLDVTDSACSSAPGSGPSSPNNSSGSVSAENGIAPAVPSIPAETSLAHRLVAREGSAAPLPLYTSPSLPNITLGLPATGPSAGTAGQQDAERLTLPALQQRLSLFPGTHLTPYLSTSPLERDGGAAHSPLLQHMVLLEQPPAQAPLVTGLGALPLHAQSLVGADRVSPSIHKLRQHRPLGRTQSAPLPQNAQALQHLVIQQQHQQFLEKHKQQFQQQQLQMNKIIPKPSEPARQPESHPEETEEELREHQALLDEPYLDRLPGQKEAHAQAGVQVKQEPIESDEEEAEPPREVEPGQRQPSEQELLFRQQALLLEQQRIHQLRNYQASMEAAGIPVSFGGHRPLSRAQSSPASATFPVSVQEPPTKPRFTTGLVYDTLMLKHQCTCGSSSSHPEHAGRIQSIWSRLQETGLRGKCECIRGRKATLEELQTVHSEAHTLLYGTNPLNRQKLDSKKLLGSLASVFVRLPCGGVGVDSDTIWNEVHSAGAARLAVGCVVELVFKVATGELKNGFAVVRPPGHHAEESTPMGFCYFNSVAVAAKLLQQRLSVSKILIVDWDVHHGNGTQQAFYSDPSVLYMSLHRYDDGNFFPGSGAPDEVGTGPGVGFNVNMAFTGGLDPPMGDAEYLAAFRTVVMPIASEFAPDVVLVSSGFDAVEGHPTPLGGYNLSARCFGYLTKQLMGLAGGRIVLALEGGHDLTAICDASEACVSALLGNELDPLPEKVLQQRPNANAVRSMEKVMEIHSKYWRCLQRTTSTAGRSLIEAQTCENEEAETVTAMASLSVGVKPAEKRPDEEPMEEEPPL
Chain of HDAC1 (Q13547 whole entry): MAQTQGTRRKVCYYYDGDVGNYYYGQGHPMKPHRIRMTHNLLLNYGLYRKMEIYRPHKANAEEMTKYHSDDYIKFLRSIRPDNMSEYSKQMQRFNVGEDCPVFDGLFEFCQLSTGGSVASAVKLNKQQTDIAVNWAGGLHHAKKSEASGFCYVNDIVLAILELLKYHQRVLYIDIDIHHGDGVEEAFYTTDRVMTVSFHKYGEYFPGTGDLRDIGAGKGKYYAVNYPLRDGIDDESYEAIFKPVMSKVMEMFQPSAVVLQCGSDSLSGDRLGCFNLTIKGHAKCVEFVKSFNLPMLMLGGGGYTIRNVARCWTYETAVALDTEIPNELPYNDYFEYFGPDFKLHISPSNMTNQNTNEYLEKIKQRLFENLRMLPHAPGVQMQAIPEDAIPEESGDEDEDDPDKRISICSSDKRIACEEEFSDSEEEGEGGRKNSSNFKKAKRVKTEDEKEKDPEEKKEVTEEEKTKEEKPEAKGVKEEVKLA
Chain of HDAC2 (Q92769 whole entry): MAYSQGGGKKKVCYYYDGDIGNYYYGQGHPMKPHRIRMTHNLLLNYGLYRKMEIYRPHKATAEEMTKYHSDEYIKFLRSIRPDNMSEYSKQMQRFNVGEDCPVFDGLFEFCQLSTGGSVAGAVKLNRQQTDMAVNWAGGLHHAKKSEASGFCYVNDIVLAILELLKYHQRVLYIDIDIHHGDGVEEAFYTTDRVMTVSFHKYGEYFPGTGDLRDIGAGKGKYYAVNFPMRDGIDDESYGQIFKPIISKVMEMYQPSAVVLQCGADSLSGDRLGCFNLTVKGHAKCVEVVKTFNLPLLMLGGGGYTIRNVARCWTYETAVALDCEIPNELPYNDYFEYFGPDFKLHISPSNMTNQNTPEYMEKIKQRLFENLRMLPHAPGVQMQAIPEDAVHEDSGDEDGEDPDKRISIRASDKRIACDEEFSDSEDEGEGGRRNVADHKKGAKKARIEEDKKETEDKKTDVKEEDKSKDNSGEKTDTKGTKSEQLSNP

CC1CCC(C(=O)O)CN1C(=O)Cc1ccc(F)cc1Cl (racemic) [BnH12001, 1-(2-(2-chloro-4-fluorophenyl)acetyl)-6-methylpiperidine-3-carboxylic acid]
did not show any inhibitory effect: Inhibitory effect on HDAC3 catalytic activity (HDAC3) | Inhibitory effect on HDAC7 catalytic activity (HDAC7) | Inhibitory effect on HDAC4 catalytic activity (HDAC4) | Inhibitory effect on HDAC8 catalytic activity (HDAC8) | Inhibitory effect on HDAC2 catalytic activity (HDAC2) | Inhibitory effect on HDAC11 catalytic activity (HDAC11) | Inhibitory effect on HDAC1 catalytic activity (HDAC1)
